A word on the TGI: it is the concentration giving total growth inhibition. A low value points to greater sensitivity of the cells. For orientation: GI50 means the concentration that inhibits growth by half.

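Exposure lasted 48 hours, with cells grown in 96-well plates and compounds tested at five concentrations. At the GI50, growth is halved. TGI is the concentration that stops growth completely.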

Among the test systems are HOP-92 NSCLC; SNB-75 CNS; OVCAR-4 ovarian; EKVX NSCLC; RPMI-8226 leukemia; OVCAR-5 ovarian; UACC-62 melanoma; RXF 393 renal; NCI-H23 lung; NCI/ADR-RES ovarian.
Holding throughout (experiment): DTP human tumour cell line panel, 48 h

With `COC(=O)/C=C1\CCC2[C@@H](C(=O)CC3[C@]2(C)CCC[C@@]3(C)C(=O)OC)C1C` (stereo partly drawn), the TGI in the assay on HOP-92 NSCLC is 50.6 µM; with SNB-75 CNS, 47.9 µM; with OVCAR-4 ovarian, 78.8 µM; in the assay on EKVX NSCLC, 72.8 µM; in the assay with RPMI-8226 leukemia, 19.9 µM; in the assay on OVCAR-5 ovarian, more than 100 µM. Moreover, the total growth inhibition concentration (TGI) in the assay on UACC-62 melanoma amounted to 30 µM.

On to `CCOC(=O)C1CC(=O)C=C2CCCCC21` (stereo not drawn), for which the total growth inhibition concentration (TGI) with RXF 393 renal, with NCI-H23 lung, in the assay with HOP-92 NSCLC, with SNB-75 CNS, in the assay with OVCAR-4 ovarian and with EKVX NSCLC was more than 100 µM in each case. In addition, the TGI in the assay with RPMI-8226 leukemia, in the assay with OVCAR-5 ovarian and in the assay with UACC-62 melanoma was more than 100 µM throughout.

For `CCOC(=O)NC(=O)c1cn(CCSCCOC(=O)NCCCCCCNC(=O)OCCSCCn2cc(C(=O)NC(=O)OCC)c(=O)n(C)c2=O)c(=O)n(C)c1=O`, the concentration for total growth inhibition (TGI) is more than 100 µM with RXF 393 renal; more than 100 µM with NCI-H23 lung; more than 100 µM in the assay with HOP-92 NSCLC; more than 100 µM with SNB-75 CNS; more than 100 µM in the assay with EKVX NSCLC; 66.8 µM with RPMI-8226 leukemia. Also, the concentration for total growth inhibition (TGI) in the assay with OVCAR-5 ovarian and in the assay with UACC-62 melanoma was more than 100 µM each time.

For `CCCCCCOC(=O)CC1=C(C)/C(=C/c2[nH]c(-c3ccc[nH]3)cc2OC)N=C1C`, the 50% growth inhibitory concentration (GI50) in the assay on RXF 393 renal was 0.163 µM; with NCI-H23 lung, 0.101 µM; in the assay with HOP-92 NSCLC, 0.0332 µM; in the assay on SNB-75 CNS, 0.0372 µM; with OVCAR-4 ovarian, 0.0785 µM; in the assay with EKVX NSCLC, 0.0576 µM. The GI50 was 0.371 µM in the assay with OVCAR-5 ovarian and 0.135 µM in the assay on NCI/ADR-RES ovarian. Also, the concentration for total growth inhibition (TGI) with RXF 393 renal was determined as 1.07 µM; in the assay with NCI-H23 lung, 1.75 µM; in the assay with HOP-92 NSCLC it was 0.351 µM; with SNB-75 CNS, 0.3 µM; in the assay with OVCAR-4 ovarian, 1.71 µM; in the assay on EKVX NSCLC, 1.64 µM. Moreover, the TGI in the assay on OVCAR-5 ovarian turned out to be 2 µM; in the assay with NCI/ADR-RES ovarian, 1.33 µM.

On to `Cn1cnc([N+](=O)[O-])c1Sc1n[nH]c(-c2ccc(Cl)cc2)n1`, for which the concentration for total growth inhibition (TGI) with RXF 393 renal was determined as 26.5 µM; with NCI-H23 lung, 37.9 µM; with HOP-92 NSCLC it was 37.6 µM; in the assay with SNB-75 CNS it was 50.7 µM; with OVCAR-4 ovarian, 57.4 µM; with EKVX NSCLC, 79.9 µM. Besides, the TGI in the assay on RPMI-8226 leukemia turned out to be 87.7 µM; in the assay on OVCAR-5 ovarian it was 63.6 µM; in the assay on UACC-62 melanoma, 28.4 µM.

Regarding `N#CC(Sc1ccccc1)C(N)=O` (stereo not drawn), the TGI in the assay with RXF 393 renal, in the assay on NCI-H23 lung, in the assay on HOP-92 NSCLC, in the assay on SNB-75 CNS, in the assay on OVCAR-4 ovarian and in the assay on EKVX NSCLC was more than 100 µM throughout. The TGI in the assay with RPMI-8226 leukemia, in the assay with OVCAR-5 ovarian and in the assay on UACC-62 melanoma was more than 100 µM each time.

Regarding `COC(=O)c1c2c(c(C)[n+]([O-])c1C)C(=O)C(NCc1ccccc1)=CC2=O`, the GI50 in the assay with RXF 393 renal is 2.48 µM; in the assay with NCI-H23 lung, 2.03 µM; in the assay on HOP-92 NSCLC, 2.8 µM; in the assay with SNB-75 CNS, 3.62 µM; in the assay on OVCAR-4 ovarian, 1.13 µM; in the assay on EKVX NSCLC it was 2.09 µM. Further, the figures for the GI50 in the assay on RPMI-8226 leukemia, with OVCAR-5 ovarian and in the assay with UACC-62 melanoma were 2.61 µM, 2.58 µM and 1.8 µM, respectively. Also, the total growth inhibition concentration (TGI) was 7.88 µM in the assay with RXF 393 renal; 6.09 µM in the assay with NCI-H23 lung; 6.61 µM with HOP-92 NSCLC; 13.9 µM in the assay with SNB-75 CNS; 2.4 µM in the assay on OVCAR-4 ovarian; 5.41 µM with EKVX NSCLC. For the same compound, the TGI in the assay with RPMI-8226 leukemia worked out at 10.1 µM; in the assay on OVCAR-5 ovarian, 6.22 µM; in the assay with UACC-62 melanoma, 3.56 µM.

Consider `O=S1Nc2cccc(C(F)(F)F)c2S1` (stereo not drawn), for which the TGI in the assay on RXF 393 renal was 73.7 µM; with NCI-H23 lung, more than 100 µM; with HOP-92 NSCLC it was 73.2 µM; with SNB-75 CNS, 82.8 µM; with OVCAR-4 ovarian it was more than 100 µM; in the assay with EKVX NSCLC, more than 100 µM. Also, the concentration for total growth inhibition (TGI) in the assay with RPMI-8226 leukemia, in the assay with OVCAR-5 ovarian and in the assay with UACC-62 melanoma was more than 100 µM throughout.

For `c1cc[c]([Ge]([O]c2cccc3cccnc23)([c]2ccccc2)[c]2ccccc2)cc1`, the GI50 in the assay on RXF 393 renal is 1.88 µM; in the assay with NCI-H23 lung, 2.96 µM; in the assay with HOP-92 NSCLC, 12.4 µM; in the assay with SNB-75 CNS, 3.5 µM; with OVCAR-4 ovarian it was 3.11 µM; in the assay on EKVX NSCLC, 3.42 µM. Moreover, the GI50 was 2.29 µM in the assay with RPMI-8226 leukemia, 15.9 µM in the assay on OVCAR-5 ovarian and 4.6 µM in the assay on UACC-62 melanoma. Further, the TGI in the assay with RXF 393 renal was 5.49 µM; in the assay with NCI-H23 lung, 8.16 µM; in the assay with HOP-92 NSCLC it was 25.5 µM; in the assay with SNB-75 CNS it was 13.1 µM; in the assay on OVCAR-4 ovarian, 13.1 µM; in the assay with EKVX NSCLC, 12.9 µM. Moreover, the total growth inhibition concentration (TGI) in the assay on RPMI-8226 leukemia is 6.77 µM; in the assay with OVCAR-5 ovarian it was 29.5 µM; in the assay with UACC-62 melanoma, 16.4 µM.

As for `Clc1ccc(-c2cnc3c(-c4ccnc(N5CCNCC5)c4)cnn3c2)cc1`, the GI50 is 2.09 µM in the assay on RXF 393 renal; 1.99 µM in the assay on NCI-H23 lung; 1.56 µM in the assay with SNB-75 CNS; 1.61 µM with OVCAR-4 ovarian; 1.83 µM in the assay on EKVX NSCLC; 1.86 µM in the assay on RPMI-8226 leukemia. In addition, the GI50 in the assay with OVCAR-5 ovarian was 1.82 µM; with UACC-62 melanoma, 2.06 µM. Further, the concentration for total growth inhibition (TGI) in the assay with RXF 393 renal is 3.72 µM; in the assay with NCI-H23 lung it was 3.66 µM; in the assay with SNB-75 CNS, 2.91 µM; in the assay on OVCAR-4 ovarian it was 3.09 µM; in the assay on EKVX NSCLC, 3.5 µM; with RPMI-8226 leukemia, 4.05 µM. Moreover, the results for the TGI in the assay with OVCAR-5 ovarian and in the assay on UACC-62 melanoma were 3.29 µM and 3.91 µM, respectively.

For `O=C(O)c1cnc2c(ccc3[nH]cccc32)c1=O`, the TGI with RXF 393 renal, with NCI-H23 lung, in the assay with SNB-75 CNS, in the assay on OVCAR-4 ovarian, with EKVX NSCLC and with OVCAR-5 ovarian was more than 100 µM throughout. In addition, the total growth inhibition concentration (TGI) in the assay with UACC-62 melanoma is more than 100 µM.

Regarding `COc1ccc2cc3c4cc(OC)c(OC)cc4ccn3c2c1`, the total growth inhibition concentration (TGI) in the assay with RXF 393 renal, with NCI-H23 lung, with HOP-92 NSCLC, with OVCAR-4 ovarian, in the assay with EKVX NSCLC and in the assay with OVCAR-5 ovarian was more than 100 µM each time. The same compound yielded a concentration for total growth inhibition (TGI) in the assay with UACC-62 melanoma of more than 100 µM.

For the origin of these results see PubChem BioAssay (NCI).
